{"source": "patent US20060216238A1", "about": "“Compositions and methods for targeting or imaging a tissue in a vertebrate subject” (priority 2005, published 2006)", "key": {"[1]": {"test": "RT-PCR detection of CPMV RNA in tissues of mice inoculated orally (gavage)", "settings": "for CPMV RNA detected in bone marrow, mice positive/examined / CPMV RNA detected in brain, mice positive/examined / CPMV RNA detected in duodenum, mice positive/examined / CPMV RNA detected in ileum, mice positive/examined / CPMV RNA detected in jejunum, mice positive/examined / CPMV RNA detected in kidney, mice positive/examined / CPMV RNA detected in liver, mice positive/examined / CPMV RNA detected in lung, mice positive/examined / CPMV RNA detected in spleen, mice positive/examined / CPMV RNA detected in stomach, mice positive/examined: oral"}, "[2]": {"settings": "1 g infected leaves, day 1 post ingestion"}}, "data": [{"substance": "cowpea mosaic virus [CPMV]", "values": [{"measurement": "CPMV RNA in the blood", "setting": "[1]; oral gavage, 4 hours, 1 day, 2 days, 3 days", "result": "detected in the blood of all orally gavaged mice"}, {"measurement": "CPMV RNA detected in bone marrow, mice positive/examined", "setting": "[1]; D1, Non-perfused", "result": "3/3"}, {"measurement": "CPMV RNA detected in brain, mice positive/examined", "setting": "[1]; D1, Non-perfused", "result": "3/3"}, {"measurement": "CPMV RNA detected in duodenum, mice positive/examined", "setting": "[1]; D1, Non-perfused", "result": "3/3"}, {"measurement": "CPMV RNA detected in ileum, mice positive/examined", "setting": "[1]; D1, Non-perfused", "result": "3/3"}, {"measurement": "CPMV RNA detected in jejunum, mice positive/examined", "setting": "[1]; D1, Non-perfused", "result": "3/3"}, {"measurement": "CPMV RNA detected in kidney, mice positive/examined", "setting": "[1]; D1, Non-perfused", "result": "3/3"}, {"measurement": "CPMV RNA detected in liver, mice positive/examined", "setting": "[1]; D1, Non-perfused", "result": "3/3"}, {"measurement": "CPMV RNA detected in lung, mice positive/examined", "setting": "[1]; D1, Non-perfused", "result": "3/3"}, {"measurement": "CPMV RNA detected in spleen, mice positive/examined", "setting": "[1]; D1, Non-perfused", "result": "3/3"}, {"measurement": "CPMV RNA detected in stomach, mice positive/examined", "setting": "[1]; D1, Non-perfused", "result": "3/3"}, {"measurement": "CPMV RNA detected in bone marrow, mice positive/examined", "setting": "[1]; D1, Perfused", "result": "2/3"}, {"measurement": "CPMV RNA detected in brain, mice positive/examined", "setting": "[1]; D1, Perfused", "result": "3/3"}, {"measurement": "CPMV RNA detected in duodenum, mice positive/examined", "setting": "[1]; D1, Perfused", "result": "3/3"}, {"measurement": "CPMV RNA detected in ileum, mice positive/examined", "setting": "[1]; D1, Perfused", "result": "3/3"}, {"measurement": "CPMV RNA detected in jejunum, mice positive/examined", "setting": "[1]; D1, Perfused", "result": "3/3"}, {"measurement": "CPMV RNA detected in kidney, mice positive/examined", "setting": "[1]; D1, Perfused", "result": "3/3"}, {"measurement": "CPMV RNA detected in liver, mice positive/examined", "setting": "[1]; D1, Perfused", "result": "3/3"}, {"measurement": "CPMV RNA detected in lung, mice positive/examined", "setting": "[1]; D1, Perfused", "result": "3/3"}, {"measurement": "CPMV RNA detected in spleen, mice positive/examined", "setting": "[1]; D1, Perfused", "result": "3/3"}, {"measurement": "CPMV RNA detected in stomach, mice positive/examined", "setting": "[1]; D1, Perfused", "result": "2/3"}, {"measurement": "CPMV RNA detected in bone marrow, mice positive/examined", "setting": "[1]; D2, Non-perfused", "result": "0/3"}, {"measurement": "CPMV RNA detected in brain, mice positive/examined", "setting": "[1]; D2, Non-perfused", "result": "1/3"}, {"measurement": "CPMV RNA detected in duodenum, mice positive/examined", "setting": "[1]; D2, Non-perfused", "result": "1/3"}, {"measurement": "CPMV RNA detected in ileum, mice positive/examined", "setting": "[1]; D2, Non-perfused", "result": "3/3"}, {"measurement": "CPMV RNA detected in jejunum, mice positive/examined", "setting": "[1]; D2, Non-perfused", "result": "0/3"}, {"measurement": "CPMV RNA detected in kidney, mice positive/examined", "setting": "[1]; D2, Non-perfused", "result": "0/3"}, {"measurement": "CPMV RNA detected in liver, mice positive/examined", "setting": "[1]; D2, Non-perfused", "result": "3/3"}, {"measurement": "CPMV RNA detected in lung, mice positive/examined", "setting": "[1]; D2, Non-perfused", "result": "1/3"}, {"measurement": "CPMV RNA detected in spleen, mice positive/examined", "setting": "[1]; D2, Non-perfused", "result": "1/3"}, {"measurement": "CPMV RNA detected in stomach, mice positive/examined", "setting": "[1]; D2, Non-perfused", "result": "1/3"}, {"measurement": "CPMV RNA detected in bone marrow, mice positive/examined", "setting": "[1]; D2, Perfused", "result": "0/3"}, {"measurement": "CPMV RNA detected in brain, mice positive/examined", "setting": "[1]; D2, Perfused", "result": "1/3"}, {"measurement": "CPMV RNA detected in duodenum, mice positive/examined", "setting": "[1]; D2, Perfused", "result": "1/3"}, {"measurement": "CPMV RNA detected in ileum, mice positive/examined", "setting": "[1]; D2, Perfused", "result": "1/3"}, {"measurement": "CPMV RNA detected in jejunum, mice positive/examined", "setting": "[1]; D2, Perfused", "result": "1/3"}, {"measurement": "CPMV RNA detected in kidney, mice positive/examined", "setting": "[1]; D2, Perfused", "result": "3/3"}, {"measurement": "CPMV RNA detected in liver, mice positive/examined", "setting": "[1]; D2, Perfused", "result": "3/3"}, {"measurement": "CPMV RNA detected in lung, mice positive/examined", "setting": "[1]; D2, Perfused", "result": "2/3"}, {"measurement": "CPMV RNA detected in spleen, mice positive/examined", "setting": "[1]; D2, Perfused", "result": "0/3"}, {"measurement": "CPMV RNA detected in stomach, mice positive/examined", "setting": "[1]; D2, Perfused", "result": "1/3"}, {"measurement": "CPMV RNA detected in bone marrow, mice positive/examined", "setting": "[1]; D3, Non-perfused", "result": "1/3"}, {"measurement": "CPMV RNA detected in brain, mice positive/examined", "setting": "[1]; D3, Non-perfused", "result": "3/3"}, {"measurement": "CPMV RNA detected in duodenum, mice positive/examined", "setting": "[1]; D3, Non-perfused", "result": "2/3"}, {"measurement": "CPMV RNA detected in ileum, mice positive/examined", "setting": "[1]; D3, Non-perfused", "result": "2/3"}, {"measurement": "CPMV RNA detected in jejunum, mice positive/examined", "setting": "[1]; D3, Non-perfused", "result": "2/3"}, {"measurement": "CPMV RNA detected in kidney, mice positive/examined", "setting": "[1]; D3, Non-perfused", "result": "1/3"}, {"measurement": "CPMV RNA detected in liver, mice positive/examined", "setting": "[1]; D3, Non-perfused", "result": "2/2"}, {"measurement": "CPMV RNA detected in lung, mice positive/examined", "setting": "[1]; D3, Non-perfused", "result": "1/3"}, {"measurement": "CPMV RNA detected in spleen, mice positive/examined", "setting": "[1]; D3, Non-perfused", "result": "0/3"}, {"measurement": "CPMV RNA detected in stomach, mice positive/examined", "setting": "[1]; D3, Non-perfused", "result": "3/3"}, {"measurement": "CPMV RNA detected in bone marrow, mice positive/examined", "setting": "[1]; D3, Perfused", "result": "0/3"}, {"measurement": "CPMV RNA detected in brain, mice positive/examined", "setting": "[1]; D3, Perfused", "result": "2/3"}, {"measurement": "CPMV RNA detected in duodenum, mice positive/examined", "setting": "[1]; D3, Perfused", "result": "0/2"}, {"measurement": "CPMV RNA detected in ileum, mice positive/examined", "setting": "[1]; D3, Perfused", "result": "1/3"}, {"measurement": "CPMV RNA detected in jejunum, mice positive/examined", "setting": "[1]; D3, Perfused", "result": "0/2"}, {"measurement": "CPMV RNA detected in kidney, mice positive/examined", "setting": "[1]; D3, Perfused", "result": "2/3"}, {"measurement": "CPMV RNA detected in liver, mice positive/examined", "setting": "[1]; D3, Perfused", "result": "3/3"}, {"measurement": "CPMV RNA detected in lung, mice positive/examined", "setting": "[1]; D3, Perfused", "result": "1/3"}, {"measurement": "CPMV RNA detected in spleen, mice positive/examined", "setting": "[1]; D3, Perfused", "result": "0/3"}, {"measurement": "CPMV RNA detected in stomach, mice positive/examined", "setting": "[1]; D3, Perfused", "result": "0/3"}, {"measurement": "mice positive for CPMV RNA in kidney, duodenum, jejunum and brain", "setting": "[2]", "result": "1 out of 3"}, {"measurement": "mice positive for CPMV RNA in spleen, liver, lungs, stomach, ileum and bone marrow", "setting": "[2]", "result": "2 out of 3"}, {"measurement": "persistence of CPMV RNA in tissues", "setting": "ingestion of infected leaves", "result": "did not persist in tissues past the first day"}]}]}
